In ChEMBL document CHEMBL4396970, “Benzothiazole-based compounds as potent endothelial lipase inhibitors” (Bioorg Med Chem Lett, 2019):
The source made the active and inactive calls. The calls are words filed in the database; no cut-off is given here.

How the values were obtained:
Endothelial lipase [1] = target: T1, Endothelial lipase (Homo sapiens, UniProt Q9Y5X9); test: Inhibition of endothelial lipase in human serum; format: cell-free
T1 sequence (Q9Y5X9 whole entry): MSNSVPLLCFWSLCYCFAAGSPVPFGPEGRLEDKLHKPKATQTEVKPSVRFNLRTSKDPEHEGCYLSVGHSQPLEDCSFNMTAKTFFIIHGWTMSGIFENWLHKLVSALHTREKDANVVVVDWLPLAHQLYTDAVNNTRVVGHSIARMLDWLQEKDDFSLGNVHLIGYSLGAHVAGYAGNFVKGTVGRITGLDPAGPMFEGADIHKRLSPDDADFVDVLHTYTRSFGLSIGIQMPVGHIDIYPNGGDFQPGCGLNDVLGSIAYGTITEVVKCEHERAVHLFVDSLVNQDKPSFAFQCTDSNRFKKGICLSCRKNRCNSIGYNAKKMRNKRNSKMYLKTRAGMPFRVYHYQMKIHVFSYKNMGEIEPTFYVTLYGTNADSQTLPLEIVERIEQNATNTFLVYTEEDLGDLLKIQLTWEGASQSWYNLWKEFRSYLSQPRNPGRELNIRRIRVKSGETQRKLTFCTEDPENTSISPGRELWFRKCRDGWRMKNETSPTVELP

[2] = Permeability of compound at pH 5.0 by PAMPA; format: ADME; conditions: read-out: permeability
[3] = Metabolic stability in human liver microsomes assessed as parent compound remaining at 0.5 uM preincubated with compound followed by NADPH addition and measured after 10 mins; format: ADME, Microsome; conditions: read-out: Stability
Cytochrome P450 2C9 = Cytochrome P450 2C9 (Homo sapiens, UniProt P11712); test: Inhibition of CYP2C9 (unknown origin); format: ADME
Cytochrome P450 3A4 = Cytochrome P450 3A4 (Homo sapiens, UniProt P08684); test: Inhibition of CYP3A4 (unknown origin); format: ADME
[4] = Permeability across basolateral to apical side in human Caco2 cells; format: ADME, cell-based; conditions: Caco-2, read-out: permeability
[5] = Permeability of compound at pH 7.4 by PAMPA; format: ADME; conditions: read-out: permeability
[6] = Permeability across apical to basolateral side in human Caco2 cells; format: ADME, cell-based; conditions: Caco-2, read-out: permeability
Cytochrome P450 2C19 = Cytochrome P450 2C19 (Homo sapiens, UniProt P33261); test: Inhibition of CYP2C19 (unknown origin); format: ADME
Cytochrome P450 1A2 = target: T2, Cytochrome P450 1A2 (Homo sapiens, UniProt P05177); test: Inhibition of CYP1A2 (unknown origin); format: ADME
T2 sequence (P05177 whole entry): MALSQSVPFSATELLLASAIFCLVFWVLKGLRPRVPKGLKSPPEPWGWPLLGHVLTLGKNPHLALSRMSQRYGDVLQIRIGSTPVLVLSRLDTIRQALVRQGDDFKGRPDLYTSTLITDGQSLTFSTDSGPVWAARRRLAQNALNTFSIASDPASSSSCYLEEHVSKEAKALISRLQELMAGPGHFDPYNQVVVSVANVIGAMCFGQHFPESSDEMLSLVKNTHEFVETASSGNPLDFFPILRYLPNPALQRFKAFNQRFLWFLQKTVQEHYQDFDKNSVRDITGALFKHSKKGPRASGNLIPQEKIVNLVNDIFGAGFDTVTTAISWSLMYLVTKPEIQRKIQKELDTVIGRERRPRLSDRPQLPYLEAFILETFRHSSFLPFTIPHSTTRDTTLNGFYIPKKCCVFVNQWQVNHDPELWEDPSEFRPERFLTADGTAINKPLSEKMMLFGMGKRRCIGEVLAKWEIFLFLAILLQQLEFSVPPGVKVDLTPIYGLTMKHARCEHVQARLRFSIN

[7] = Metabolic stability in mouse liver microsomes assessed as parent compound remaining at 0.5 uM preincubated with compound followed by NADPH addition and measured after 10 mins; format: ADME, Microsome; conditions: read-out: Stability
Cytochrome P450 2D6 = Cytochrome P450 2D6 (Homo sapiens, UniProt P10635); test: Inhibition of CYP2D6 (unknown origin); format: ADME
[8] = target: T3, Hepatic triacylglycerol lipase (Homo sapiens, UniProt P11150); test: Inhibition of hepatic lipase (unknown origin)
T3 sequence (P11150 whole entry): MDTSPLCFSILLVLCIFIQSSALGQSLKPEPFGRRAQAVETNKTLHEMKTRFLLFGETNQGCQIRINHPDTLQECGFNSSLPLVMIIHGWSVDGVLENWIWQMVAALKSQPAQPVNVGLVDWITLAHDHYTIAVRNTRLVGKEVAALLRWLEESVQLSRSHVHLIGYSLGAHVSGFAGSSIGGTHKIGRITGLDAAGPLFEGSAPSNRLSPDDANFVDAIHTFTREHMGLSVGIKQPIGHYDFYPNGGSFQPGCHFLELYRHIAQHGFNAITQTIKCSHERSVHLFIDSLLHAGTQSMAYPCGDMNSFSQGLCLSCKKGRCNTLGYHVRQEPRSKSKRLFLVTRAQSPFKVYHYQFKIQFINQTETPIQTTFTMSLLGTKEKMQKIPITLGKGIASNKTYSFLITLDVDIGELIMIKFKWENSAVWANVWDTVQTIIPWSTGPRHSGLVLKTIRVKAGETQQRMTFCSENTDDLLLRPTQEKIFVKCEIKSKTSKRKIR

Endothelial lipase [9] = target: T1, Endothelial lipase; test: Inhibition of endothelial lipase (unknown origin)
Mus musculus [10] = test: Antiatherosclerotic in C57BL/6 mouse assessed as increase in HDL-cholesterol level in plasma at 50 mg/kg, ip qd administrated for 2 days and measured 6 hrs post last dose by FPLC analysis; format: functional, organism-based
[11] = Tmax in BALB/c mouse at 50 mg/kg, ip; format: ADME, organism-based; conditions: in vivo
[12] = target: T4, Endothelial lipase (Homo sapiens) (UniProt Q9Y5X9); test: Reversible inhibition of endothelial lipase (unknown origin) assessed as recovery of enzyme activity measured after 24 hrs by dialysis based assay relative to control; set-up: scale not given: the % may be the effect or the level left
T4 sequence (whole entry): T1 sequence (Q9Y5X9 whole entry)

[13] = Tmax in BALB/c mouse at 10 mg/kg, po; format: ADME, organism-based; conditions: in vivo
[14] = Ratio of Cmin in BALB/c mouse to IC50 for endothelial lipase in human serum; format: ADME; conditions: in vivo
[15] = AUC (0 to 24 hrs) in BALB/c mouse at 50 mg/kg, ip measured up to 24 hrs; format: ADME, organism-based; set-up: time < 24 hr, dose 50 mg/kg, route intraperitoneal; conditions: in vivo
[16] = Tmin in BALB/c mouse at 50 mg/kg, ip; format: ADME, organism-based; conditions: in vivo
[17] = Cmax in BALB/c mouse at 50 mg/kg, ip; format: ADME, organism-based; set-up: dose 50 mg/kg, route intraperitoneal; conditions: in vivo
[18] = Half life in BALB/c mouse at 10 mg/kg, po; format: ADME, organism-based; conditions: in vivo
[19] = Half life in BALB/c mouse at 50 mg/kg, ip; format: ADME, organism-based; conditions: in vivo
Mus musculus [20] = test: Antiatherosclerotic in C57BL/6 mouse assessed as change in phospholipid level in plasma at 50 mg/kg, ip qd administrated for 2 days and measured 6 hrs post last dose by FPLC analysis; format: functional, organism-based
[21] = Plasma concentration in BALB/c mouse at 50 mg/kg, ip measured at 24 hrs post dose; format: ADME, organism-based
[22] = Plasma concentration in BALB/c mouse at 10 mg/kg, po measured at 24 hrs post dose; format: ADME, organism-based
[23] = Cmax in BALB/c mouse at 10 mg/kg, po; format: ADME, organism-based; set-up: dose 10 mg/kg, route oral; conditions: in vivo
[24] = AUC (0 to 24 hrs) in BALB/c mouse at 10 mg/kg, po; format: ADME, organism-based; set-up: time < 24 hr, dose 10 mg/kg, route oral; conditions: in vivo

Sequence of Cytochrome P450 2D6 (P10635 whole entry): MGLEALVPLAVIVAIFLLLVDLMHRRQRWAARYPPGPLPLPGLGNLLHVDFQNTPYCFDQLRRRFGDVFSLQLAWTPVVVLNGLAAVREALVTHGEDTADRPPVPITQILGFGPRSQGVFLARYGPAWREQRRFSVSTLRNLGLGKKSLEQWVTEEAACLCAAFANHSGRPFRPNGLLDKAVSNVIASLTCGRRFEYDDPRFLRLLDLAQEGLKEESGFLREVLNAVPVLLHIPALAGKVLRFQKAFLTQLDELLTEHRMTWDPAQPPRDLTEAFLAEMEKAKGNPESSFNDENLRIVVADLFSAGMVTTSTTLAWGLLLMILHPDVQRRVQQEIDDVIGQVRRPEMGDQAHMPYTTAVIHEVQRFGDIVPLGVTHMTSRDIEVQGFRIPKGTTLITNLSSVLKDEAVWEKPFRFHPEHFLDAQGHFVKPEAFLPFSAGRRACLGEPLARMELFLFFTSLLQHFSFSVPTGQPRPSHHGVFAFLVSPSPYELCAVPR
Sequence of Cytochrome P450 2C19 (P33261 whole entry): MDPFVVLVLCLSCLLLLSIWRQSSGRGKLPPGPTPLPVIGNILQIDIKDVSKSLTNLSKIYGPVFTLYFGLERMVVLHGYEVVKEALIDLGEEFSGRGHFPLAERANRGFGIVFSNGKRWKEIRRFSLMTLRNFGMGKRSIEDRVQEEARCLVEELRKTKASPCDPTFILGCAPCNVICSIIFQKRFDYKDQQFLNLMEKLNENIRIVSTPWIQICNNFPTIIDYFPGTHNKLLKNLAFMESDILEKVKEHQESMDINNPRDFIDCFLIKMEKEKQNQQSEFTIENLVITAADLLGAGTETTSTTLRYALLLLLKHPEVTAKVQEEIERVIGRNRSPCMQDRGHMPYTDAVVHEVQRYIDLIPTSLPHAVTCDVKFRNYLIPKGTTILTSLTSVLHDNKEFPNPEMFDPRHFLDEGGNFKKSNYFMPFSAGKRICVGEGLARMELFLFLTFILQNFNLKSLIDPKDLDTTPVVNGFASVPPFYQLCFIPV
Sequence of Cytochrome P450 3A4 (P08684 whole entry): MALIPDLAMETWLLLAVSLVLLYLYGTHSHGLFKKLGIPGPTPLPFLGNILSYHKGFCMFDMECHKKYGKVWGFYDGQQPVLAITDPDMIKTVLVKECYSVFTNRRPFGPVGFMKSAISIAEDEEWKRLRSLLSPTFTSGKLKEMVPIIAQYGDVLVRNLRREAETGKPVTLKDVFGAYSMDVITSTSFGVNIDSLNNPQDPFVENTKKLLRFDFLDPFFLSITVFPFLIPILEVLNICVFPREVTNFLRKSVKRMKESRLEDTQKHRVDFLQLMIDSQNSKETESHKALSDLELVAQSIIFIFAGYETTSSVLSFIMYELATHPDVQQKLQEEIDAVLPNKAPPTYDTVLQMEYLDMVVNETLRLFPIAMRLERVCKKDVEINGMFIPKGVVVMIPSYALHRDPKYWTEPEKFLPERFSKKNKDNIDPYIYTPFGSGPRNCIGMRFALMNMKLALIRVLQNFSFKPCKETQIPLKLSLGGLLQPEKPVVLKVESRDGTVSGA
Sequence of Cytochrome P450 2C9 (P11712 whole entry): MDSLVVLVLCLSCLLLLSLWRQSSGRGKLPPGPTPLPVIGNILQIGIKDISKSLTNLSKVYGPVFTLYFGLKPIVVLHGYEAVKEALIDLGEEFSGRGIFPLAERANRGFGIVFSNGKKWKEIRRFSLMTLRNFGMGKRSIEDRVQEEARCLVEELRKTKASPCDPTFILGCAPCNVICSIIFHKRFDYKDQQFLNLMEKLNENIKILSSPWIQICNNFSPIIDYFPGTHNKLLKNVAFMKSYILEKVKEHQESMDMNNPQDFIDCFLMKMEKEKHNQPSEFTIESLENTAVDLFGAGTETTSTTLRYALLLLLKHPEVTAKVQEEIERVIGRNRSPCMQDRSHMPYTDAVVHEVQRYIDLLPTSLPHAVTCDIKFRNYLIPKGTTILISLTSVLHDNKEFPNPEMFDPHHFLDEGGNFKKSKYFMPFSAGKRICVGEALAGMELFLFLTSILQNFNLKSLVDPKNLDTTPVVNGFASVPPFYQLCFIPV

Structure (SMILES) | IC50 (Endothelial lipase [1]) [nM] | Papp [2] [×10⁻⁶ cm/s] | remaining at 10 min, 0.5 µM [3] [%] | IC50 (Cytochrome P450 2C9) [nM] | IC50 (Cytochrome P450 3A4) [nM] | Papp B→A [4] [×10⁻⁶ cm/s] | Papp [5] [×10⁻⁶ cm/s] | Papp A→B [6] [×10⁻⁶ cm/s] | IC50 (Cytochrome P450 2C19) [nM] | IC50 (Cytochrome P450 1A2) [nM] | remaining at 10 min, 0.5 µM [7] [%] | IC50 (Cytochrome P450 2D6) [nM] | IC50 [8] [nM] | IC50 (Endothelial lipase [9]) [nM] | further results
CN1CCN(C(=O)c2ccc(-c3ccc4nc(C(C#N)C(=O)NCC(=O)NC5CC5)sc4c3)cc2)CC1 (racemic) | 30 | 0.2 | 78 | > 18000 | > 18000 | 3 | 0.3 | < 1.5 | > 18000 | > 18000 | 91 | > 18000 | 1800 | – | –
N#CC(C(=O)NCC(=O)NC1COC1)c1nc2ccc(-c3ccc(F)nc3)cc2s1 (racemic) | 50 | 6.5 | 87 | > 18000 | > 18000 | 34.9 | 0.4 | < 1.5 | > 18000 | > 18000 | 87 | > 18000 | 190 | – | –
CN(C)C(=O)c1ccc(-c2ccc3nc(C(C#N)C(=O)NCC(=O)NC4CC4)sc3c2)cc1F (racemic) | 70 | – | – | – | – | – | – | – | – | – | – | – | 1100 | – | –
N#CC(C(=O)NCC(=O)NC1CC1)c1nc2ccc(-c3ccc(F)nc3)cc2s1 (racemic) | 230 | – | – | – | – | – | – | – | – | – | – | – | 500 | 170 | –
N#CC(C(=O)NCC(=O)NC1CC1)c1nc2ccc(-c3ccc(NC(=O)OCc4ccccc4)cc3)cc2s1 (racemic) | 80 | – | – | – | – | – | – | – | – | – | – | – | 0.8 | 1 | –
N#CC(C(=O)NCC(=O)NC1CC1)c1nc2ccc(-c3ccc4c(c3)CNC4=O)cc2s1 (racemic) | 100 | – | – | – | – | – | – | – | – | – | – | – | 70 | 5.3 | –
CN1CCN(C(=O)c2ccc(-c3ccc4nc(C(C#N)C(=O)NCC(=O)NC5CCC5)sc4c3)cc2)CC1 (racemic) | 200 | – | – | – | – | – | – | – | – | – | – | – | 490 | 3100 | –
N#CC(C(=O)NCC(=O)NC1CC1)c1nc2ccc(-c3ccc(C(=O)N4CCOCC4)cc3)cc2s1 (racemic) | 50 | 10.4 | 98 | > 18000 | > 18000 | 18.4 | 0.4 | 1.7 | > 18000 | > 18000 | 100 | > 18000 | 300 | – | –
N#CC(C(=O)NCC(=O)NC1CC1)c1nc2ccc(-c3ccc4c(c3)C(=O)NC4)cc2s1 (racemic) | 130 | – | – | – | – | – | – | – | – | – | – | – | 420 | – | –
CN(C)C(=O)c1cccc(-c2ccc3nc(C(C#N)C(=O)NCC(=O)NC4CC4)sc3c2)c1 (racemic) | 30 | 8.4 | 76 | > 18000 | > 18000 | 7.5 | 0.3 | < 1.5 | > 18000 | > 18000 | 99 | > 18000 | 720 | – | –
N#CC(C(=O)NCC(=O)NC1CC1)c1nc2ccc(-c3ccc(C(=O)N4CCC4)cc3)cc2s1 (racemic) | 170 | – | – | – | – | – | – | – | – | – | – | – | 170 | – | –
N#CC(C(=O)NCC(=O)N1CCCC1)c1nc2ccc(-c3ccccc3)cc2s1 (racemic) | 1100 | – | – | – | – | – | – | – | – | – | – | – | 250 | 1300 | –
N#CC(C(=O)NCC(=O)NC1CC1)c1nc2ccc(-c3cccc(C(=O)N4CCCCC4)c3)cc2s1 (racemic) | 140 | – | – | – | – | – | – | – | – | – | – | – | 35 | – | –
N#CC(C(=O)NCC(=O)NC1CC1)c1nc2ccc(-c3ccccc3)cc2s1 (racemic) | 51 | 162 | 91 | > 18000 | > 18000 | 24.6 | 84.5 | 2 | > 18000 | > 18000 | 86 | > 18000 | 5.4 | – | Activity (Mus musculus [10]): inactive; Tmax [11]: 7 h; Activity [12]: 88%; Tmax [13]: 0.25 h; Ratio [14]: > 30; AUC(0-t) at 24 h [15]: 330 µM·h; Tmin [16]: 23.8 h; Cmax [17]: 28 µM; half-life [18]: 8.5 h; half-life [19]: 4.7 h; Activity (Mus musculus [20]): inactive; concentration at 24 h [21]: 1.66 µM; concentration at 24 h [22]: 0.14 µM; Cmax [23]: 6.6 µM; AUC(0-t) at 24 h [24]: 18 µM·h
